Reference: patent publication US9884818B2, “Sulphamoylpyrrolamide derivatives and the use thereof as medicaments for the treatment of hepatitis B” (Janssen Sciences Ireland UC, priority 2013, dated 2018)

How the values were obtained:
[1] = tested on: HBV; assay: Anti-HBV activity, HepG2.2.15 stable transfected cell line, HBV DNA from secreted virions by realtime PCR; assay type: cell-based; conditions: Hepatitis B virus, HepG2.2.15, 144 h, HepG2.2.15 cells, 6 days of treatment, HBV DNA from secreted virions; read-out: HepG2 2.15 EC50
[2] = Cytotoxicity in HepG2 cells, Resazurin viability assay; conditions: human, HepG2 cells, HepG2 4 days CC50 (μM), incubated for 4 days, Resazurin assay
[3] = tested on: HBV; assay: Anti-HBV activity, HepG2.117 inducibly HBV producing cell line (Tet-off), intracellular HBV DNA by realtime PCR; assay type: cell-based; conditions: Hepatitis B virus, HepG2.117, 72 h, HepG2.117 cells, 3 days of treatment, intracellular HBV DNA; read-out: HepG2 117 EC50

SMILES | EC50 [1] | CC50 at 4 days [2] | EC50 [3]
Cc1c(S(=O)(=O)N[C@H](C)C(F)(F)F)c(C#N)c(C(=O)Nc2ccc(F)c(C#N)c2)n1C [Compound 316, 3-cyano-N-(3-cyano-4-fluoro-phenyl)-1,5-dimethyl-4-[[(1R)-2,2,2-trifluoro-1-methyl-ethyl]sulfamoyl]pyrrole-2-carboxamide] | 50 nM | > 25 µM | 50 nM
Cn1cc(S(=O)(=O)NC2(C(F)(F)F)CC2)c(Cl)c1C(=O)Nc1ccc(F)c(C#N)c1 [Compound 271, 3-Chloro-N-(3-cyano-4-fluorophenyl)-1-methyl-4-{[1-(trifluoro-methyl)cyclopropyl]sulfamoyl}-1H-pyrrole-2-carboxamide] | 9 nM | > 25 µM | 20 nM
Cn1cc(S(=O)(=O)N[C@H]2CCOC2)cc1C(=O)Nc1cc(F)c(F)c(F)c1 [Compound 26, 1-methyl-[[(3S)-tetrahydrofuran-3-yl]sulfamoyl]-N-(3,4,5-trifluoro-phenyl)pyrrole-2-carboxamide] | 140 nM | > 25 µM | 260 nM
Cn1cc(S(=O)(=O)NC2(C)CC(F)(F)C2)cc1C(=O)Nc1ccc(F)c(C#N)c1 [Compound 245, N-(3-cyano-4-fluoro-phenyl)-4-[(3,3-difluoro-1-methyl-cyclobutyl)sulfamoyl]-1-methyl-1H-pyrrole-2-carboxamide] | 40 nM | > 25 µM | 40 nM
CC(C)NS(=O)(=O)c1cc(C(=O)Nc2ccc(F)c(F)c2)n(C)c1 [Compound 22, N-(3,4-difluorophenyl)-4-(isopropylsulfamoyl)-1-methyl-pyrrole-2-carboxamide] | 80 nM | > 25 µM | 70 nM
Cn1cc(S(=O)(=O)NCC(F)(F)F)cc1C(=O)Nc1cc(F)c(F)c(Cl)c1 [Compound 133, N-(3-Chloro-4,5-difluorophenyl)-1-methyl-4-[(2,2,2-trifluoroethyl)sulfamoyl]-1H-pyrrole-2-carboxamide] | 40 nM | > 25 µM | 80 nM
Cn1cc(S(=O)(=O)NCC(F)(F)F)cc1C(=O)Nc1ccc(F)c(F)c1 [Compound 132, N-(3,4-Difluorophenyl)-1-methyl-4-[(2,2,2-trifluoroethyl)sulfamoyl]-1H-pyrrole-2-carboxamide] | 80 nM | > 25 µM | 70 nM
Cc1c(F)ccc(NC(=O)c2c(F)c(S(=O)(=O)NC3(C)COC3)cn2C)c1F [Compound 110, N-(2,4-Difluoro-3-methylphenyl)-3-fluoro-1-methyl-4-[(3-methyloxetan-3-yl)sulfamoyl]-1H-pyrrole-2-carboxamide] | 20 nM | > 25 µM | 30 nM
Cn1cc(S(=O)(=O)NC2(C)COC2)cc1C(=O)Nc1ccc(Cl)c(F)c1 [Compound 84] | 460 nM | > 25 µM | 610 nM
CC[C@@H](C)NS(=O)(=O)c1cc(C(=O)Nc2cc(F)c(F)c(Br)c2)n(C)c1 [Compound 47, N-(3-bromo-4,5-difluoro-phenyl)-1-methyl-4-[[(1R)-1-methylpropyl]-sulfamoyl]pyrrole-2-carboxamide] | 100 nM | > 25 µM | 100 nM
Cn1cc(S(=O)(=O)NC(C)(C)C)cc1C(=O)Nc1cc(Cl)c(F)c(Cl)c1 [Compound 76, 4-(tert-Butylsulfamoyl)-N-(3,5-dichloro-4-fluorophenyl)-1-methyl-1H-pyrrole-2-carboxamide] | 180 nM | > 25 µM | 130 nM
CC(C)NS(=O)(=O)c1cc(C(=O)Nc2cc(F)c(F)c(Cl)c2)n(C)c1 [Compound 57, N-(3-chloro-4,5-difluoro-phenyl)-4-(isopropylsulfamoyl)-1-methyl-pyrrole-2-carboxamide] | 60 nM | > 25 µM | 50 nM
